Assay results from US20160044922A1, “Control of Ectoparasites” (priority 2014, published 2016).

How the values were obtained:
[1] = tested on: southern corn rootworm; details: cited from earlier work
[2] = tested on: tobacco bud worm; details: cited from earlier work
[3] = tested on: fleas; assay: Activity on fleas; details: in vivo
[4] = rat versus trout liver microsomes; cited from earlier work
[5] = tested on: cotton aphids; details: cited from earlier work
[6] = tested on: Larval-stage lone star ticks (Amblyomma americanum); assay: Dip survival assay, A. americanum larvae; type: in vivo; details: larvae submerged 30 minutes, counted after 24 hours at 25° with 95% humidity
Experimental: Activity Against A. Americanum Larvae in a Dip Survival Assay
Compound 1 from a dimethyl sulfoxide (DMSO) stock or 2% DMSO alone is dispensed into a round-bottom 96-well plate and mixed with aqueous buffer containing 1% ethanol, 0.2% Triton X100. […] Larval-stage lone star ticks (Amblyomma americanum) are dispensed into the wells containing the Compound and submerged for 30 minutes. The ticks are subsequently dispensed into a tissue biopsy bag, which is allowed to dry for 1 hour. After drying, the bags are incubated at 25° with 95% humidity for 24 hours and the number of live or dead larvae are enumerated. The observations made illustrated in the following table.

[7] = tested on: beneficial mite species; details: under normal use; cited from earlier work
[8] = tested on: ticks; assay: Activity on ticks; details: in vivo
[9] = tested on: predatory mites and many beneficial insects; details: under field conditions; cited from earlier work
[10] = tested on: mosquito larvae; details: cited from earlier work
[11] = tested on: fish, mammals; details: fish versus mammals; cited from earlier work
[12] = tested on: cabbage looper; details: cited from earlier work
[13] = tested on: tobacco budworm; details: cited from earlier work

Row | Structure (SMILES) | activity [1] | metabolism by the tobacco bud worm [2] | activity on fleas [3] | degradation by liver microsomes [4] | LC50 [5] [ppm] | Number of live/dead A. americanum larvae 24 hours after treatment ([6]; 0.01% compound) | Number of live/dead A. americanum larvae 24 hours after treatment ([6]; 0.05% compound) | toxicity to beneficial mite species [7] | activity on ticks [8] | impact on predatory mites and many beneficial insects [9] | LC50 [10] [ppm] | toxicity [11] | LC50 [12] [ppm] | activity [13]
1 | CC(C)(C)c1ccc(CCOc2ncnc3ccccc23)cc1 [Formula I, 4-tert-butylphenethyl quinazolin-4-yl ether] | greater than 400 ppm | extensively metabolized | active | degraded more extensively by rat liver microsomes than by trout liver microsomes | 2.6 | 0/52 | 0/48 | relatively low toxicity | active | minimal impact | 0725 | higher toxicity of the compound to fish than to mammals | 188 | greater than 400 ppm
2 | CCc1nn(C)c(C(=O)NCc2ccc(C(C)(C)C)cc2)c1Cl [Formula II, 4-chloro-5-ethyl-2-methyl-N-[(4-tert-butylphenyl)methyl]pyrazole-3-carboxamide] | – | – | – | – | – | – | – | relatively low toxicity | – | minimal impact | – | – | – | –
3 | CC(C)(C)c1ccc(CSc2cnn(C(C)(C)C)c(=O)c2Cl)cc1 [pyridaben, 4-chloro-2-tert-butyl-5-[(4-tert-butylphenyl)methylsulfanyl]pyridazin-3-one] | – | – | – | – | – | – | – | – | – | minimal impact | – | – | – | –
